Results from article PMC10545732, “Structure-based drug discovery of a corticotropin-releasing hormone receptor 1 antagonist using an X-ray free-electron laser” (Experimental & Molecular Medicine, 2023).
Read-outs that look alike come from different tables or passages of the source. One block for each molecule: values may come before it.

Experiments:
CRF1R [1] = target: T1, CRF1R (Homo sapiens, UniProt P34998); experiment: Calcium mobilization assay (hCRF1R Ca2+ antagonism); format: cell-based; conditions: for IC50 (in words): reason for not selecting
T1 construct: HEK-Gα15 cells (Eurofins Scientific) transfected with CRF1R; host or cells: HEK-Gα15 cells
T1 sequence (P34998 24-415): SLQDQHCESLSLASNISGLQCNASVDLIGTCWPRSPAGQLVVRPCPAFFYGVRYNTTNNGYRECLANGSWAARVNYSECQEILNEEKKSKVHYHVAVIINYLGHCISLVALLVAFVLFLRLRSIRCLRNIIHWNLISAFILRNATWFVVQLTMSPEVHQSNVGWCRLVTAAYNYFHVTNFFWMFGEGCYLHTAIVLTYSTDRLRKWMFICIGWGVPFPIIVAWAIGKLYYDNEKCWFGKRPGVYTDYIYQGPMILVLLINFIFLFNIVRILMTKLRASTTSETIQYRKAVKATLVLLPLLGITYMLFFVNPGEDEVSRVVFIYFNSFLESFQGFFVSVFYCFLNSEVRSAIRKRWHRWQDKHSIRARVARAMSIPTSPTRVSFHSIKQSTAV
Procedure: HEK-Gα15 cells (Eurofins Scientific) transfected with CRF1R were plated in 96-well plates at a density of 50,000 cells/100 μL per well and incubated overnight. The next day, the cells were incubated with a Calcium 6 reagent (Molecular Devices) containing 0.5 mM probenecid (Sigma) at 37 °C for 1 h before adding compounds or dimethyl sulfoxide DMSO (positive and negative control; final concentration 0.1%). After incubation at 37 °C for 1 h, 50 μL urocortin (final concentration 2 nM) (Tocris) was dispensed into the well with FLIPR-tetra (Molecular Devices). […] Intracellular calcium changes were recorded at excitation and emission wavelengths of 470–495 and 515–575 nm, respectively. Relative fluorescence units (RFU) were calculated as the fluorescence signal maximum minus the signal minimum for 30 s after addition. The graphs and IC50 concentrations were calculated using GraphPad Prism 6 software.

[2] = parameters: method as in PMID 21308801; conditions: liver microsomal stability assay; cited from earlier work
CYP3A4 = CYP3A4 (Homo sapiens, UniProt P08684); experiment: CYP inhibition assay CYP3A4 (midazolam 1'-hydroxylase); conditions: 10 μM, human liver microsomes, n = 3
CYP1A2 = target: T2, CYP1A2 (Homo sapiens, UniProt P05177); experiment: CYP inhibition assay CYP1A2 (phenacetin O-demethylase); format: in vitro ADME
T2 construct: 0.25 mg/mL human liver microsomes; from tissue; host or cells: human liver microsomes
T2 sequence (P05177 1-516): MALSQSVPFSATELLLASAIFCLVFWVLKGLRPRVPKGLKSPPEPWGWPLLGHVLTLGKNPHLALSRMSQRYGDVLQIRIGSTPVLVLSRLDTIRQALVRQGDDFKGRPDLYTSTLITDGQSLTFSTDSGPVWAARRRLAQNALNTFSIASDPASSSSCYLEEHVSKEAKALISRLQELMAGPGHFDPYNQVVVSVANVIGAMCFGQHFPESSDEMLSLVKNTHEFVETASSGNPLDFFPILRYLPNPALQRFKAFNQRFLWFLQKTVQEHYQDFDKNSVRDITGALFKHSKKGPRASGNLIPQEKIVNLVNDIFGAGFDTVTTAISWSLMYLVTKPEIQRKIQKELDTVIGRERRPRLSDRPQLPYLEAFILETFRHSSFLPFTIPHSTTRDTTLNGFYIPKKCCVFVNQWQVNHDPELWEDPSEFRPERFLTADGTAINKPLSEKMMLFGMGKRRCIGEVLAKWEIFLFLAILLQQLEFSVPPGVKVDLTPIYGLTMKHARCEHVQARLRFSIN

CYP2D6 = CYP2D6 (Homo sapiens, UniProt P10635); experiment: CYP inhibition assay CYP2D6 (dextromethorphan O-demethylase); conditions: 10 μM, human liver microsomes, n = 3
PK studies in rats = format: in vivo, SD rats; conditions: male, Sprague-Dawley, rat, plasma, SD rats, n = 3
Procedure: CRF1R antagonist PKs were studied in naïve male SD rats following a single i.v. bolus injection or p.o. gavage. The i.v. injections used Antalarmin, BMK-C203, or BMK-C205 at doses of 5 mg/kg and BMK-I-152 at a dose of 1 mg/kg. The antagonist’s doses in the p.o. injection was 10 mg/kg. Three male SD rats weighing between 220 and 260 g were used to evaluate CRF1R antagonist PKs. The vehicle used for all dose groups was […]: TPGS: PEG400 (70%:20%:10%). Blood samples were collected from all treatment groups at 0 h (predose), 0.083, 0.25, 0.5, 1, 2, 4, 6, 8, and 24 h after dosing. Antalarmin, BMK-I-152, BMK-C203, and BMK-C205 concentrations in the plasma samples were determined via LC‒MS/MS (LLOQ was 1 ng/mL for CRF1R antagonists). PK parameter estimates were determined using the serial time-course profiles for plasma concentrations of three male rats per group via noncompartmental analysis using commercially available software (Phoenix WinNonlin, version 8.1, Pharsight Corporation, Mountain View, CA).

CYP2C19 = target: T3, CYP2C19 (Homo sapiens, UniProt P33261); experiment: CYP inhibition assay CYP2C19 (S-mephenytoin 4-hydroxylase); format: in vitro ADME
T3 construct: 0.25 mg/mL human liver microsomes; from tissue; host or cells: human liver microsomes

[3] = Microsomal stability assay, rat liver microsomes; format: in vitro ADME; conditions: 1 μM, n = 3
Procedure: The incubation mixtures consisted of 0.5 mg/mL human (Corning, #452117) and rat liver microsomes (Corning, #452701), 0.1 M phosphate buffer (pH 7.4), NADPH regeneration system, and substrates (CRF1R antagonist compounds, 1 µM) in a total volume of 100 μL. […] LC‒MS/MS was performed on a TSQ Vantage (Thermo, USA) coupled with a Nexera XR LC system (Shimadzu, Japan)[32]. The separation was performed on a Kinetex C18 column (2.1 × 100 mm, 2.6 µm, Phenomenex, USA) using a mobile phase of 0.1% formic acid and acetonitrile containing 0.1% formic acid. A gradient program was used for elution at a flow rate of 0.3 mL/min. The data were acquired using multiple-reaction monitoring (MRM) in positive mode. Detection of the ions was performed by monitoring the m/z transition of 494.1 → 336.1 for BMK-I-152, 598.1 → 233.2 for BMK-C203, and 488.1 → 434.1 for BMK-C205.

CRF1R [4] = target: CRF1R; parameters: method as in PMID 21308801; conditions: cited from earlier work
[5] = Microsomal stability assay, human liver microsomes; format: in vitro ADME
Procedure: LC‒MS/MS was performed on a TSQ Vantage (Thermo, USA) coupled with a Nexera XR LC system (Shimadzu, Japan)[32]. The separation was performed on a Kinetex C18 column (2.1 × 100 mm, 2.6 µm, Phenomenex, USA) using a mobile phase of 0.1% formic acid and acetonitrile containing 0.1% formic acid. A gradient program was used for elution at a flow rate of 0.3 mL/min. The data were acquired using multiple-reaction monitoring (MRM) in positive mode.

CYP2C9 = target: T4, CYP2C9 (Homo sapiens, UniProt P11712); experiment: CYP inhibition assay CYP2C9 (diclofenac 4-hydroxylase); format: in vitro ADME
T4 construct: 0.25 mg/mL human liver microsomes; from tissue; host or cells: human liver microsomes

C57BL/6J mice [6] = experiment: Tail suspension test (TST); format: in vivo; conditions: 30 mg/kg orally for 3 days, test 2 h after third dose, last 4 min of 6 min
Procedure: (§1) C57BL/6J mice (male, 9–10 weeks old) were used for the behavioral tests. All mice were maintained under a 12:12-h light–dark cycle (lights on at 7:00 A.M.) with access to food and water ad libitum. Animal care and handling were performed according to guidelines by the Institutional Animal Care and Use Committee of Yonsei University (Seoul, Korea). Antalarmin, BMK-C203, and BMK-C205 were dissolved in peceol: TPGS: PEG400 (vehicle) (70%:20%:10%, respectively) and administered orally at a dose of 30 mg/kg for 3 days at 24-h intervals. All behavioral tests were conducted 2 h after the third drug was administered during light periods of the circadian cycle. TSTs were performed to verify the effect of CRF1R antagonists on depressive-like behavior. Each mouse was suspended by its tail on a bar 30 cm above the ground for 6 min using adhesive tape. Their movements were recorded by a camera and analyzed using the same parameters via EthoVision XT 8.5 software (Noldus Technologies). Immobility times during the last 4 min of the task were measured. Each mouse was placed in an open field (40 cm × 40 cm × 40 cm chamber) for 1 h to conduct an open field test (OFT) and test locomotion. Their locomotion was recorded and analyzed using EthoVision XT 8.5.

ACTH serum levels = experiment: Serum ACTH level after TST (ELISA); format: in vivo, mice; conditions: 30 mg/kg orally for 3 days, immediately after TST
Procedure: (§2) The mice were anesthetized via intraperitoneal injections of 2,2,2-tribromoethanol (300 mg/kg, Sigma-Aldrich) immediately after the TST and before blood from the heart was sampled. Blood samples were collected in plastic tubes and incubated at room temperature for at least 2 h. The sera were extracted after centrifugation at 13,000×g for 10 min at 4 °C. CORT levels were determined via LC‒MS analysis. Serum (10 µL) was mixed with 20 μL of an internal standard solution (d4-cortisol) to prepare the samples. Subsequently, 100 μL of acetonitrile was added, and the mixture was centrifuged at 16,000×g for 10 min for protein precipitation. The supernatants (60 μL) were transferred into an autosampler vial, and 30 μL of water was added for efficient separation via high-performance liquid chromatography (HPLC). LC‒MS was performed with a triple quadrupole mass spectrometer coupled with HPLC using a C18 reversed-phase column. CORT levels were determined using a calibration curve constructed using CORT-spiked mouse serum. Serum samples (20 μL) were analyzed using a commercially available ELISA kit for ACTH (ab263880, Abcam) to measure ACTH serum levels.

CORT serum levels = experiment: Serum CORT level after TST (LC-MS); format: in vivo, mice; conditions: 30 mg/kg orally for 3 days, immediately after TST
Procedure: as §2

C57BL/6J mice [7] = experiment: Open field test (OFT); format: in vivo; conditions: 30 mg/kg orally for 3 days, 1 h open field
Procedure: as §1

[8] = 10 μM, human liver microsomes, n = 3

T4 sequence (P11712 whole entry): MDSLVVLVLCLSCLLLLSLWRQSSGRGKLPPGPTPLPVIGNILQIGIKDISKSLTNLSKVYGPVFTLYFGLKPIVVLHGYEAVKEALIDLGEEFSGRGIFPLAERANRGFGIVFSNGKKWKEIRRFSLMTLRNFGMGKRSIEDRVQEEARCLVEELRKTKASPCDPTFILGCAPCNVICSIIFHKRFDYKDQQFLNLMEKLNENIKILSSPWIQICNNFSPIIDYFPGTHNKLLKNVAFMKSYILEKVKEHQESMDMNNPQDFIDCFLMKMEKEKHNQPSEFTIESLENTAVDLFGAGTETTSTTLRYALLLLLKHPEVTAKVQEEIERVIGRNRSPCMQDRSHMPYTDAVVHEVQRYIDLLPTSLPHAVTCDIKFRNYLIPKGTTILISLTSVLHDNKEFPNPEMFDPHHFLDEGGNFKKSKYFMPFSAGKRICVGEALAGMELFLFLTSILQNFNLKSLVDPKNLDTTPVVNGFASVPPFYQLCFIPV
T3 sequence (P33261 whole entry): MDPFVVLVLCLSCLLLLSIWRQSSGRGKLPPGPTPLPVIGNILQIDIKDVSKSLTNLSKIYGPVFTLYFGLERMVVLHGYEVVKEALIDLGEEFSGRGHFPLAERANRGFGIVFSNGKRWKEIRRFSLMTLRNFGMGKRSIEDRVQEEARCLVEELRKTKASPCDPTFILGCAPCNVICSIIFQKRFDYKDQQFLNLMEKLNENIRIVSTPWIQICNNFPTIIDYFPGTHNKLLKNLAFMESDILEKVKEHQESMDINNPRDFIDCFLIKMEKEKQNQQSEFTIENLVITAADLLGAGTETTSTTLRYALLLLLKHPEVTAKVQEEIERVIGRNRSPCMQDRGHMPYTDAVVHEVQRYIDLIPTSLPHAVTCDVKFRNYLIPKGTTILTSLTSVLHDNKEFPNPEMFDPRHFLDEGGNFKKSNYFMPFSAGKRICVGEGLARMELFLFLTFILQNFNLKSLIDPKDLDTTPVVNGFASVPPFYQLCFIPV
CYP3A4, sequence (P08684 whole entry): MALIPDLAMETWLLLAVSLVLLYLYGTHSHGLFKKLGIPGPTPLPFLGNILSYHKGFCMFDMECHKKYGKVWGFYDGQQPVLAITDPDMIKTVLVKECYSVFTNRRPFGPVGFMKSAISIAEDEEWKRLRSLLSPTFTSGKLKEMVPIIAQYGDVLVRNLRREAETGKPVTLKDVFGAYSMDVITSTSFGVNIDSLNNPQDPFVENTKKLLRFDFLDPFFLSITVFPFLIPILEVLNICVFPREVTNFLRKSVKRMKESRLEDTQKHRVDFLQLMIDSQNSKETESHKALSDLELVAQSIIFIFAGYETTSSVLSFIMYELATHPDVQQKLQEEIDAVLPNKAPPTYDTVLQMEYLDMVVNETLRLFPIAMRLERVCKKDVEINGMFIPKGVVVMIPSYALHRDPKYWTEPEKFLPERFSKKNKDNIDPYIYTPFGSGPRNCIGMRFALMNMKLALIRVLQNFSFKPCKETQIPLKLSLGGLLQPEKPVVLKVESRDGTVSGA
CYP2D6, sequence (P10635 whole entry): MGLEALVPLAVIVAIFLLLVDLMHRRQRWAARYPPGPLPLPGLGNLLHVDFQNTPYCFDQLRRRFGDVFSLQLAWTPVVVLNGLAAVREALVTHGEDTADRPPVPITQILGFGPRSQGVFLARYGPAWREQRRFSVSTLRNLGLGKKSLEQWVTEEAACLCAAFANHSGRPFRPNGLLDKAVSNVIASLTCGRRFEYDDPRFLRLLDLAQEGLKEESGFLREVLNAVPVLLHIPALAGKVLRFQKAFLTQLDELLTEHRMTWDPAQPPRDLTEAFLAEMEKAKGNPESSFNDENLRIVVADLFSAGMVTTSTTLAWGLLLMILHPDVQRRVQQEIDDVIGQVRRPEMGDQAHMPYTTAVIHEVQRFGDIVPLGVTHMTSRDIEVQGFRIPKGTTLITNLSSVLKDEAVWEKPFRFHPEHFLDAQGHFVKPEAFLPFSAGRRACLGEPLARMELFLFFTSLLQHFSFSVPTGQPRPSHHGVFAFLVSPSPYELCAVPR

Structure (SMILES): CC(=O)N1CCN(c2ccc(OCC3COC(Cn4ccnc4)(c4ccc(Cl)cc4Cl)O3)cc2)CC1 (stereo not shown) [Ketoconazole, reference compound]
CYP1A2, percentage of control activity (CYP1A2; reference chemical at 0.1 μM): 94.3 ± 5.3 percentage of control activity
CYP2C19, percentage of control activity (CYP2C19; reference chemical at 0.1 μM): > 100 ± 12.9 percentage of control activity
CYP2C9, percentage of control activity (CYP2C9; reference chemical at 0.1 μM): 94.0 ± 9.2 percentage of control activity

Structure (SMILES): CCCCN(CC)c1nc(C)nc2c1c(C)c(C)n2-c1c(C)cc(C)cc1C [Antalarmin, reference compound]
TST immobility time versus vehicle (C57BL/6J mice [6]): no significant difference
AUC(0-t) (PK studies in rats; iv, I.V, 5 mg/kg): 4370 ng·h/mL
half-life (PK studies in rats; iv, I.V, 5 mg/kg): 3.09 h
AUC(0-t) (PK studies in rats; po, P.O, 10 mg/kg): 660 ng·h/mL
Cmax (PK studies in rats; po, P.O, 10 mg/kg): 146 ng/mL
Tmax (PK studies in rats; po, P.O, 10 mg/kg): 4 h
bioavailability (PK studies in rats; po, P.O, 10 mg/kg): 7.6%
half-life (PK studies in rats; po, P.O, 10 mg/kg): 4.08 h
serum ACTH level versus vehicle (ACTH serum levels): no significant difference
serum CORT level versus vehicle (CORT serum levels): no significant difference
OFT locomotion / overall moving distance (C57BL/6J mice [7]): did not differ among groups

Structure (SMILES): CCCCN(CCCC(F)(F)F)c1nc(C)nc2c(-c3c(OC)cc(Br)cc3OC)c(C)nn12 [BMK-C207]
IC50 (in words) (CRF1R [1]): high IC50 values

Further lines, with some results ahead:

IC50 (in words) (CRF1R [1]): high IC50 values
Structure (SMILES): COc1cc(Br)cc(OC)c1-c1c(C)nn2c(N(CCCC(F)(F)F)CC3CC3)nc(C)nc12 [BMK-C209]

AUC(0-t) (PK studies in rats; iv, I.V, 1 mg/kg): 913 ng·h/mL
half-life (PK studies in rats; iv, I.V, 1 mg/kg): 13.5 h
AUC(0-t) (PK studies in rats; po, P.O, 10 mg/kg): 3080 ng·h/mL
Cmax (PK studies in rats; po, P.O, 10 mg/kg): 267 ng/mL
Tmax (PK studies in rats; po, P.O, 10 mg/kg): 6.67 h
bioavailability (PK studies in rats; po, P.O, 10 mg/kg): 33.8%
half-life (PK studies in rats; po, P.O, 10 mg/kg): 5.66 h
IC50 (CRF1R [1]; HEK-Gα15 cells transfected with CRF1R, urocortin 2 nM, n = 3): 26 nM
IC50 fold lower than that of Antalarmin (CRF1R [1]; hCRF1R Ca2+ antagonism assay): ~12 fold
IC50 fold lower than that of CP376395 (CRF1R [1]; hCRF1R Ca2+ antagonism assay): ~ 55 fold
Liver microsomal stability, Rat (percentage remaining after 30 min) [3]: 35.3 ± 5.85%
Liver microsomal stability, Human (percentage remaining after 30 min) ([5]; 1 μM, n = 3): 27.7 ± 3.87%
liver microsomal stability (remaining) ([5]; in almost all species (human and rat liver microsomes), 30 min): below 35%
Structure (SMILES): COCCN(CCOC)c1nc(C)nc2c(-c3c(OC)cc(Br)cc3OC)c(C)nn12 [BMK-I-152]
half-life [2]: < 0.5 h
CYP3A4, percentage of control activity (CYP3A4): 99.8 ± 3.0 percentage of control activity
CYP1A2, percentage of control activity (CYP1A2; [8]): 98.8 ± 1.8 percentage of control activity
CYP2D6, percentage of control activity (CYP2D6): > 100 ± 1.6 percentage of control activity
CYP2C19, percentage of control activity (CYP2C19; [8]): 83.2 ± 5.0 percentage of control activity
Ki (CRF1R [4]): 0.35 nM
CYP2C9, percentage of control activity (CYP2C9; [8]): 89.9 ± 7.0 percentage of control activity

IC50 (in words) (CRF1R [1]): high IC50 values
Structure (SMILES): CCCN(CCCC(F)(F)F)c1nc(C)nc2c(-c3c(OC)cc(Br)cc3OC)c(C)nn12 [BMK-C210]
